For assay [1], the system named is representative cancer cell line. The assay is described as follows: Vacuolization and disruption of intracellular trafficking in cells. Particulars: live cells treated with 500 nM, 24 h.
Assay [2] concerns 456 kinases. It counts as binding.

`Cc1cccc(/C=N/Nc2cc(N3CCOCC3)nc(OCCc3ccccn3)n2)c1` [apilimod]: the vacuolization result in assay [1] is listed as “induces vacuolization”. Further, the “binding to panel of 456 kinases” value in assay [2] is on record as “did not bind to any of the 456 kinases tested”.

Source of the values: patent US10729694B2 (AI Therapeutics, Inc., priority 2015, dated 2020).
